Numbered stars: 1 amine (or outer) side, 2 acyl side, 3 side chain; on linkers, the order of the positions; unused ones are H or OH. Bridge positions count the residues as written; N and C are the ends. Peptide text beside a SMILES is read from it. I, II: the chains in the order shown. X1 = O=C(c1ccc(N=Nc2ccc(C(=O)[*:2])cc2)cc1)[*:1]
Key:
[1] = not given; remark: listed apart in the source
[2] = Thermal isomerization in the dark and photostationary state, followed by UV–vis spectroscopy; type: physicochemical
Procedure: The thermal stability of the ELP–azobenzene conjugates was also investigated by using UV–vis spectroscopy. After measurements under “UV–vis–UV” conditions, each peptide solution was incubated in the dark, and spectral changes were monitored over time (Figure ). […] These findings indicate that the photoswitching behavior of this peptide was more readily controllable than that of the other analogues.
Additionally, the isomerization of Azb-2(K-F2) to a cis-enriched state was induced by irradiation with UV-A light (365 nm), which is a commercially available light source (Figure S4). […] On the other hand, when an LED light with a higher irradiance than that used for spectrum measurements was used as the light source, Azb-2(K-F2) reached a photostationary state in approximately 5 min (Figure S4B). Overall, based on the experimental results, Azb-2(K-F2) appears to be a promising easy-to-handle peptide with both temperature and photoresponsiveness.
The synthesized ELP–azobenzene conjugates were dissolved in PBS buffer (137 mM NaCl, 2.68 mM KCl, 10 mM Na2HPO4, and 2 mM KH2PO4, pH 7.4) to prepare 50 μM solutions. The time-dependent UV–vis spectra of each conjugate were recorded using a JASCO V-660 spectral photometer (JASCO Co., Tokyo) in a quartz cell (optical path length: 10 mm, volume: 400 μL). […] Initially, the absorption spectra of the dark-adapted solution of the ELP–azobenzene conjugate were measured to determine the irradiation wavelength corresponding to its π–π* band. Subsequently, the ELP–azobenzene conjugate solution was irradiated with light corresponding to the π–π* band for 60 min and the absorption spectra were recorded every 10 min. Next, the peptide solution was irradiated with visible light corresponding to the n–π* band for 60 min and the absorption spectra were recorded every 10 min. The peptide solution was then irradiated again with UV light for 60 min and the absorption spectra were recorded every 10 min. Finally, the peptide solution was incubated in the dark conditions and the absorption spectra were recorded every 1 h. […]

[3] = Optical / fluorescence microscopy of coacervates and Rhodamine B-loaded aggregates; type: physicochemical
Procedure: To investigate the morphological properties of the ELP–azobenzene conjugates, a PBS solution of Azb-2(K-F2) was observed by using optical microscopy at different temperatures under light-protected conditions. The Azb-2(K-F2) solution was almost homogeneous at 25 °C (Figure A). However, spherical coacervates of the peptide emerged at 35 °C and then rapidly matured into larger particles with diameters of several micrometers by increasing the temperature to 37 °C (Figure B,C). These particles stably exist under dark conditions (Figure D).
Azb-2(K-F2) was further studied to determine whether the chemical release from the peptide aggregates could be controlled by light irradiation. Azb-2(K-F2) and Rhodamine B (a red fluorescent dye) were heated in PBS to form coacervates, and a stable pellet of the aggregate was obtained by centrifugation. This pellet was composed of Azb-2(K-F2) coacervates containing rhodamine B with diameters of several micrometers, as shown in Figure . The structure of the obtained sample was observed over time by using optical and fluorescence microscopy under irradiation with monochromatic light at a wavelength of 365 nm (Figure ). Before light irradiation, the peptide aggregate containing Rhodamine B was observed as a red-colored amorphous structure with a size of approximately 600–700 μm. When irradiated with UV-A light, spherical particles (several micrometers in diameter) leaked from the surface of the aggregates and the red dye diffused accordingly. This dissociation process was considered to be the reverse of the stepwise phase separation in which ELP formed submicron-ordered aggregates and then matured to larger aggregates with diameters of several micrometers. […] In contrast, the peptide aggregate containing Rhodamine B was stable at 37 °C in the absence of UV-A light (Figure S12).
The morphology of the coacervates of the ELP–azobenzene conjugate Azb-2(K-F2) was observed by optical microscopy. The light field observation was performed using a Leica DM IL LED (Leica Microsystems CMS, Wetzlar, Germany) equipped with HI PLAN 40× (Leica Microsystems CMS), HC PLAN 10× (Leica Microsystems CMS), and a Leica EL6000 external light source (Leica Microsystems CMS). Azb-2(K-F2) was dissolved in PBS buffer at a concentration of 3 mg/mL. Sample imaging was performed at 25, 35, and 37 °C by using a Thermo Plate TP-CHSQM (Tokai Hit Co., Ltd., Shizuoka, Japan). […]
A time-course observation of Azb-2(K-F2) aggregates in the presence of a fluorescent dye was also performed. To the Azb-2(K-F2) solution (in phosphate buffer, pH 7.4, 3 mg/mL) was added Rhodamine B at a final concentration of 50 μM. The resulting solution was incubated at 37 °C for 4 h. Then, the solution was centrifuged for 20 s (6200 rpm) to obtain an aggregate of the peptide as a red pellet. The obtained peptide aggregate was washed with PBS buffer (37 °C, 50 μL, three times) and was used to make a prepared slide. Time-dependent observation of the prepared sample was carried out at 37 °C under irradiation with 365 nm monochromatic light.

## CC(C)[C@H](NC(=O)CNC(=O)[C@@H]1CCCN1C(=O)[C@H](Cc1ccccc1)NC(=O)CNC(=O)[C@@H](NC(=O)CNC(=O)[C@@H]1CCCN1C(=O)[C@H](Cc1ccccc1)NC(=O)[C@H](CCCCN)NC(=O)c1ccc(N=Nc2ccc(C(=O)N[C@@H](CCCCN)C(=O)N[C@@H](Cc3ccccc3)C(=O)N3CCC[C@H]3C(=O)NCC(=O)N[C@H](C(=O)NCC(=O)N[C@@H](Cc3ccccc3)C(=O)N3CCC[C@H]3C(=O)NCC(=O)N[C@H](C(=O)NCC(=O)O)C(C)C)C(C)C)cc2)cc1)C(C)C)C(=O)NCC(=O)O [Azb-2(K-F2)] (I: KFPGVGFPGVG-OH / II: KFPGVGFPGVG-OH; linker I:N-II:N via X1)
other
  peak wavelength π–π*: 330 nm
[1]
  peak wavelength n–π*: 430 nm
[2]; 37 °C for 12 h, light-protected, 50 μM in PBS, UV–vis spectra
  thermal stability of the cis-enriched state, 12 h: remained in a cis-enriched state
[2]; UV-A 365 nm LED of higher irradiance than for the spectrum measurements
  time to reach the photostationary state with LED light: approximately 5 min
[2]; dark, after 3 days, UV–vis spectra (Figure S3)
  thermal stability of the cis-enriched state, 3 days: retained its cis-isomer-enriched state
[3]; 37 °C, absence of UV-A light (Figure S12)
  aggregate containing Rhodamine B without UV-A light: stable
[3]; optical and fluorescence microscopy, 37 °C, 365 nm monochromatic light, Rhodamine B 50 μM at loading
  aggregate containing Rhodamine B under continued UV-A irradiation: completely collapsed
[3]; optical microscopy, 3 mg/mL in PBS, 37 °C, UV-A 365 nm for 5 min
  coacervate particles after UV-A irradiation: particles disappeared
[3]; optical microscopy, 3 mg/mL in PBS, 37 °C, room light 5 min after UV-A
  coacervate particles after subsequent room light: spherical aggregates reappeared
[3]; optical microscopy, 3 mg/mL in PBS, light-protected
  temperature at which spherical coacervates emerged: 35 °C
